From patent publication US20110129868A1, “CELL CAPABLE OF REPLICATING NOVEL HCV REPLICON, CELL CAPABLE OF REPLICATING FULL-LENGTH HCV RNA, AND USE OF THOSE CELLS” (priority 2008, published 2011)
Where two headings read alike, the source gives them in different places.

Tests used:
[1] = test system: full-length HCV RNA replication in ORL11 cells; test: microbe, parasite or virus in culture; format: cell-based, HCV-O strain (genotype 1b)
Experimental: (§1) Renilla luciferase was quantified by collecting cells using a Renilla Luciferase Assay System (Promega) according to the manufacturer's experiment protocol.
(§2) Luciferase activity of each cell line was then measured at hour 24, 48, and 72. […] SD values were calculated based on the results from three samples at each point. […]

[2] = test system: full-length HCV RNA replication in ORL8 cells; test: microbe, parasite or virus in culture; format: cell-based, HCV-O strain (genotype 1b); conditions: for EC50: Hepatitis C virus
Experimental: as §1, §2

[3] = test system: full-length HCV RNA replication in OR6 cells; test: microbe, parasite or virus in culture; format: cell-based, HCV-O strain (genotype 1b)
Excerpt: as §1
An OR6-cell assay system was used as a control.

[4] = test system: ORL8 cells; test: cell count by trypan blue staining, ORL8 cells; format: cell-based, human; conditions: drug at the concentration corresponding to the EC50 value
[5] = test system: ORL11 cells; test: cell count by trypan blue staining, ORL11 cells; format: cell-based, human
[6] = test system: OR6 cells; test: cell count by trypan blue staining, OR6 cells; format: cell-based, human; conditions: drug at the concentration corresponding to the EC50 value
[7] = test system: HCV replicon of Con1 strain; conditions: cited from earlier work
[8] = test system: full-length HCV RNA replication in OR6 cells; conditions: OR6 cell assay system (Naka et al., BBRC 2005); cited from earlier work
[9] = in vivo; cited from earlier work
[10] = test system: ORL8, ORL11, and OR6 cells; test: cell count / cytotoxicity check, cell lines not itemised; conditions: at a concentration of 12.5 μM
Experimental: In order to ascertain that the decrease in luciferase activity in response to the addition of ribavirin was not due to the cell growth inhibition or cytotoxicity by ribavirin, the cells were cultured under the same conditions used for the luciferase assay, and counted using a trypan blue staining technique. The effect of adding ribavirin in the concentration corresponding to the EC50 value of each cell line was examined.
FLV (Calbiochem, 344095) was used.

[11] = Hepatitis C virus, 72 h, luciferase activity after 72 hours, read-out: EC50
[12] = ORL8 cells, luciferase activity after 72 hours, read-out: EC50
[13] = ORL11 cells, drug at the concentration corresponding to the EC50 value, trypan blue
[14] = Hepatitis C virus, OR6 cells, luciferase activity after 72 hours, read-out: EC50
[15] = drug concentrations based on the EC50 values
[16] = ORL8 cells, drug concentrations based on the EC50 values
[17] = OR6 cells, drug concentrations based on the EC50 values

Molecule: CCCCCCC(=O)CCCCCC/C=C/C[C@@H](O)[C@H](O)[C@@](N)(CO)C(=O)O [Myriocin]
- EC50 [1, 11]: 0.00362 µM
- EC50 [2, 12]: 0.00516 µM
- luciferase activity (relative to no drug) ([3]; OR6 cells, at 5 nM to 40 nM, after 72 hours, EC50 not calculable): below 60%
- cell count over the control cells [4]: 83.5%
- cell count over the control cells [5, 13]: ≥ 91%
- cell count over the control cells [6]: ≥ 91%
- EC50 ([7]; Con1 strain, analyzed 72 hours after the addition of the drug): 0.0058 µM

Molecule: COC1=C2C[C@@H](C)C[C@H](OC)[C@H](O)[C@@H](C)/C=C(\C)[C@H](OC(N)=O)[C@@H](OC)/C=C\C=C(/C)C(=O)NC(=CC1=O)C2=O [Geldanamycin]
- EC50 [1, 11]: 0.00331 µM
- EC50 [2, 12]: 0.00257 µM
- EC50 [3, 14]: 0.0021 µM

Molecule: NC(=O)c1ncn([C@@H]2O[C@H](CO)[C@@H](O)[C@H]2O)c1O [Mizoribine]
- EC50 [1, 11]: 76.5 µM
- EC50 [2, 12]: 58.8 µM
- luciferase activity (value relative to no drug) ([3]; OR6 cells, at 200 μM, after 72 hours): above 50%

Molecule: CC(C)n1c(/C=C/C(O)CC(O)CC(=O)O)c(-c2ccc(F)cc2)c2ccccc21 (stereo not drawn) [FLV, Fluvastatin]
- EC50 ([1]; FLV from a different manufacturer (LKT laboratories Inc., F4482), read-out: EC50): 0.14 µM
- EC50 [1, 11]: 0.32 µM
- EC50 ([1]; Hepatitis C virus, FLV from a different manufacturer (LKT laboratories Inc., F4482), read-out: EC50): 0.11 µM
- luciferase activity after treatment (single agent or combined use) [1, 15]: 51%
- EC50 ([2]; ORL8 cells, FLV from a different manufacturer (LKT laboratories Inc., F4482), read-out: EC50): 0.31 µM
- EC50 [2, 12]: 0.28 µM
- luciferase activity after treatment (single agent or combined use) [2, 16]: 59%
- EC50 ([3]; Hepatitis C virus, OR6 cells, FLV from a different manufacturer (LKT laboratories Inc., F4482), read-out: EC50): 1.44 µM
- EC50 [3, 14]: 1.22 µM
- luciferase activity after treatment (single agent or combined use) [3, 17]: 55%
- cell count over the control cells [4]: ≥ 97%
- cell count over the control cells [5, 13]: ≥ 97%
- cell count over the control cells [6]: ≥ 97%

Molecule: CC[C@H](C)C(=O)O[C@H]1C[C@@H](C)C=C2C=C[C@H](C)[C@H](CC[C@@H]3C[C@@H](O)CC(=O)O3)[C@H]21 [LOV, Lovastatin]
- EC50 [1, 11]: 1.04 µM
- EC50 [2, 12]: 1.49 µM
- EC50 [3, 14]: 3 µM

Molecule: NC(=O)c1ncn([C@@H]2O[C@H](CO)[C@@H](O)[C@H]2O)n1 [Ribavirin]
- EC50 [1, 11]: 15.9 µM
- luciferase activity after treatment (single agent or combined use) ([1]; IFN-α at 0.25 IU/ml, ribavirin at 12.5 W): 49%
- EC50 [2, 12]: 10.1 µM
- luciferase activity after treatment (single agent or combined use) ([2]; ORL8 cells, IFN-α at 0.25 IU/ml, ribavirin): 35%
- EC50 [3, 14]: 119 µM
- luciferase activity after treatment (single agent or combined use) ([3]; OR6 cells, IFN-α at 0.25 IU/ml, ribavirin): 97%
- cell count over the control cells [4]: ≥ 98%
- cell count over the control cells [5, 13]: ≥ 98%
- cell count over the control cells [6]: ≥ 98%
- EC50 [8]: 76 µM
- blood concentrations [9]: 10 to 14 µM
- cytotoxicity [10]: not recognized

Molecule: CC(=O)Oc1ccccc1C(=O)O [ASA, Acetylsalicylic Acid]
- EC50 ([1]; Hepatitis C virus, 72 h, luciferase activity after 72 hours): 1170 µM
- EC50 ([2]; ORL8, 72 h): 1330 µM
- EC50 ([3]; Hepatitis C virus, OR6, 72 h): 2160 µM
- cell count over the control cells [4]: 53%
- cell count over the control cells [5, 13]: 72%
- cell count over the control cells [6]: 51%
- EC50 ([7]; HCV replicons of Con1 strain (Trujillo-Murillo et al.)): 4000 µM

Molecule: O=C(O)C[C@H](O)C[C@H](O)/C=C/c1c(C2CC2)nc2ccccc2c1-c1ccc(F)cc1 [PTV, Pitavastatin]
- EC50 [1, 11]: 0.16 µM
- luciferase activity after treatment (single agent or combined use) [1, 15]: 49%
- EC50 [2, 12]: 0.45 µM
- luciferase activity after treatment (single agent or combined use) [2, 16]: 43%
- EC50 [3, 14]: 0.46 µM
- luciferase activity after treatment (single agent or combined use) [3, 17]: 56%
- cell count over the control cells [4]: ≥ 80%
- cell count over the control cells [5, 13]: ≥ 80%
- cell count over the control cells [6]: ≥ 80%

Molecule: CCC(C)(C)C(=O)O[C@H]1C[C@@H](C)C=C2C=C[C@H](C)[C@H](CC[C@@H]3C[C@@H](O)CC(=O)O3)[C@H]21 [SMV, Simvastatin]
- EC50 [1, 11]: 0.15 µM
- EC50 [2, 12]: 0.28 µM
- EC50 [3, 14]: 1.42 µM

B1: IFN-γ: interferon gamma (Sigma), pharmaceutical agent having an anti-HCV action (protein, UniProt P01579 24-161, looked up)
Interferon gamma: QDPYVKEAENLKKYFNAGHSDVADNGTLFLGILKNWKEESDRKIMQSQIVSFYFKLFKNFKDDQSIQKSVETIKEDMNVKFFNSNKKKRDDFEKLTNYSVTDLNVQRKAIHELIQVMAELSPAAKTGKRKRSQMLFRG
- EC50 (50% effective drug concentration) ([1]; luciferase activity after 72 hours): 0.13 IU/ml
- EC50 (50% effective drug concentration) ([2]; ORL8 cells, luciferase activity after 72 hours): 0.077 IU/ml
- EC50 ([3]; OR6 cells, luciferase activity after 72 hours): 0.21 IU/ml
- cell count over the control cells [4]: ≥ 90%
- cell count over the control cells [5]: ≥ 90%
- cell count over the control cells [6]: ≥ 90%
